From the supplement of paper PMC11451515 come the findings set out here.

Holding throughout (assay): AUC of viability dose-response curve (% viability x log10 dose units); higher = less sensitive
Common to all, as to conditions: 48 h

The test system of assay [1] is P12-Ichikawa. In short, it runs like this:
(§1)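 Leukemia cells adapted to each medium were seeded at 500 or 1000 cells/well in 1536-well plates and dosed with library compounds in DMSO at 11 threefold doses from 47 μM to 0.79 nM for 48 h at 37°C. CellTiter-Glo One luminescence was normalised per plate to DMSO and cell-free wells, then fitted with a four-parameter log-logistic model over log10 doses. Area under the curve was taken from this fit by the trapezoidal rule, with curves above full viability scaled and curves failing quality control removed.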

The test system of assay [2] is NOMO1. Put shortly: as §1
The test system of assay [3] is SEM cells. In short, it runs like this: as §1
[4] abbreviates: RPMI 5 mM glucose + 10% dialyzed FBS.

For `C/C(=N\NC(=S)N1CCC1)c1ccccn1`, the “AUC of viability dose-response curve” value in assay [1] (HPLM + 10% dialyzed FBS) worked out at 127; in assay [1] (RPMI 5 mM glucose + 10% FBS), 120; in assay [1] (setting [4]), 122; in assay [2] (HPLM + 10% dialyzed FBS), 122; in assay [2] (RPMI 5 mM glucose + 10% FBS), 140; in assay [2] (setting [4]), 121.

Regarding `CCN1\C=C(\C(O)=O)C(=O)C2=C1N=C(N3CCNCC3)C(=C2)F`, the “AUC of viability dose-response curve” value in assay [1] (HPLM + 10% dialyzed FBS) worked out at 430; in assay [1] (RPMI 5 mM glucose + 10% FBS), 386; in assay [1] (setting [4]) it was 396; in assay [2] (HPLM + 10% dialyzed FBS) it was 343; in assay [2] (RPMI 5 mM glucose + 10% FBS), 380; in assay [2] (setting [4]), 361. Further, the “AUC of viability dose-response curve” value was 385 in assay [3] (HPLM + 10% dialyzed FBS), 407 in assay [3] (RPMI 5 mM glucose + 10% FBS) and 409 in assay [3] (setting [4]).

On to `O=[N+]([O-])c1ncc[nH]1`, for which the “AUC of viability dose-response curve” value was determined as 418 in assay [1] (HPLM + 10% dialyzed FBS); 395 in assay [1] (RPMI 5 mM glucose + 10% FBS); 414 in assay [1] (setting [4]); 416 in assay [2] (HPLM + 10% dialyzed FBS); 402 in assay [2] (RPMI 5 mM glucose + 10% FBS); 400 in assay [2] (setting [4]). Moreover, the “AUC of viability dose-response curve” value was 402 in assay [3] (HPLM + 10% dialyzed FBS), 444 in assay [3] (RPMI 5 mM glucose + 10% FBS) and 459 in assay [3] (setting [4]).

For `COc1cc(Nc2c(C#N)cnc3cc(OCCCN4CCN(C)CC4)c(OC)cc23)c(Cl)cc1Cl`, the “AUC of viability dose-response curve” value in assay [1] (HPLM + 10% dialyzed FBS) is 372; in assay [1] (RPMI 5 mM glucose + 10% FBS), 382; in assay [1] (setting [4]), 382; in assay [2] (HPLM + 10% dialyzed FBS) it was 370; in assay [2] (RPMI 5 mM glucose + 10% FBS), 397; in assay [2] (setting [4]) it was 407.

Turning to `CC[C@]12CC[C@H]3[C@@H](CCC/4=C/C(=O)CC[C@H]34)[C@@H]1CC[C@@]2(O)C#C`, the “AUC of viability dose-response curve” value in assay [1] (HPLM + 10% dialyzed FBS) amounted to 413; in assay [1] (RPMI 5 mM glucose + 10% FBS), 405; in assay [1] (setting [4]), 386; in assay [3] (HPLM + 10% dialyzed FBS), 417; in assay [3] (RPMI 5 mM glucose + 10% FBS) it was 448; in assay [3] (setting [4]), 452.

`N#CC(c1ccnc(NCCc2cccnc2)n1)c1nc2ccccc2s1` (centres undefined): the “AUC of viability dose-response curve” value is 467 in assay [1] (HPLM + 10% dialyzed FBS); 473 in assay [1] (RPMI 5 mM glucose + 10% FBS); 470 in assay [1] (setting [4]); 469 in assay [2] (HPLM + 10% dialyzed FBS); 475 in assay [2] (RPMI 5 mM glucose + 10% FBS); 450 in assay [2] (setting [4]). In addition, the “AUC of viability dose-response curve” value in assay [3] (HPLM + 10% dialyzed FBS) turned out to be 454; in assay [3] (RPMI 5 mM glucose + 10% FBS), 448; in assay [3] (setting [4]), 468.

As for `CCc1cc(C(N)=S)ccn1`, the “AUC of viability dose-response curve” value in assay [1] (HPLM + 10% dialyzed FBS) is 448; in assay [1] (RPMI 5 mM glucose + 10% FBS), 463; in assay [1] (setting [4]), 452; in assay [2] (HPLM + 10% dialyzed FBS), 459; in assay [2] (RPMI 5 mM glucose + 10% FBS), 434; in assay [2] (setting [4]) it was 460. Moreover, the “AUC of viability dose-response curve” value was 407 in assay [3] (HPLM + 10% dialyzed FBS), 434 in assay [3] (RPMI 5 mM glucose + 10% FBS) and 447 in assay [3] (setting [4]).

On to `O=S(=O)([O-])CCS.[Na+]`, for which the “AUC of viability dose-response curve” value in assay [1] (HPLM + 10% dialyzed FBS) was found to be 379; in assay [1] (RPMI 5 mM glucose + 10% FBS) it was 383; in assay [1] (setting [4]) it was 407; in assay [2] (HPLM + 10% dialyzed FBS) it was 367; in assay [2] (RPMI 5 mM glucose + 10% FBS), 341; in assay [2] (setting [4]) it was 351. In addition, the entries for the “AUC of viability dose-response curve” value in assay [3] (HPLM + 10% dialyzed FBS), in assay [3] (RPMI 5 mM glucose + 10% FBS) and in assay [3] (setting [4]) were 452, 443 and 405, respectively.

Regarding `O=C(Nc1c[nH]nc1-c1nc2cc(CN3CCOCC3)ccc2[nH]1)NC1CC1`, the “AUC of viability dose-response curve” value in assay [1] (HPLM + 10% dialyzed FBS) was 270; in assay [1] (RPMI 5 mM glucose + 10% FBS), 282; in assay [1] (setting [4]), 304; in assay [3] (HPLM + 10% dialyzed FBS), 219; in assay [3] (RPMI 5 mM glucose + 10% FBS) it was 202; in assay [3] (setting [4]) it was 199.
